The values that follow come from PubChem BioAssay (NCI).

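96-well plates; 48 h exposure; 5 concentrations. Endpoints by linear interpolation between flanking doses. Not reached: highest tested concentration assigned. The concentration for 50% growth inhibition is given as GI50. TGI denotes the concentration required for complete inhibition of growth.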 Bounds are passed on as bounds.

Holding throughout (assay): NCI tumour cell line growth inhibition, 48 h
Experiment [1] concerns A498 renal.
For experiment [2], the system named is MCF7 breast.
In experiment [3] the test system is HOP-92 NSCLC.
For experiment [4], the system named is MDA-MB-231 breast.
The subject of experiment [5] is HOP-62 NSCLC.
The test system of experiment [6] is SF-539 CNS.
Experiment [7] deals with SW-620 colon.
In experiment [8] the test system is OVCAR-8 ovarian.

Take `Cc1c(Br)c(Br)c2c3c1nc(N1CCNCC1)n3CCC2`: the GI50 in experiment [1] is 1.44 µM; in experiment [2] it was 1.75 µM; in experiment [3] it was 0.0744 µM; in experiment [4] it was 1.36 µM; in experiment [5], 1.87 µM; in experiment [6] it was 1.64 µM. The GI50 in experiment [7] was 1.55 µM; in experiment [8], 2.08 µM. Further, the TGI in experiment [1] was found to be 2.99 µM; in experiment [2], 3.49 µM; in experiment [3], 1.12 µM; in experiment [4] it was 2.74 µM; in experiment [5], 4.87 µM; in experiment [6], 3.09 µM. Also, the TGI came out at 3.09 µM in experiment [7] and 5.46 µM in experiment [8].
Turning to `Cc1cc2c(C(C)C)c(O)c(O)c(/C=N/O)c2c(O)c1-c1c(C)cc2c(C(C)C)c(O)c(O)c(/C=N/O)c2c1O`, the GI50 in experiment [1] was 2.54 µM; in experiment [2] it was 2.52 µM; in experiment [3], 2.89 µM; in experiment [4] it was 3.5 µM; in experiment [5], 1.95 µM; in experiment [6], 1.85 µM. The GI50 in experiment [7] and in experiment [8] was 2.94 µM throughout. For the same molecule, the TGI in experiment [1] was determined as 10.4 µM; in experiment [2], 12.2 µM; in experiment [3], 13.5 µM; in experiment [4] it was 20.2 µM; in experiment [5], 11.4 µM; in experiment [6], 5.37 µM. In addition, the TGI is 12.3 µM in experiment [7] and 13.2 µM in experiment [8].
As to `COc1cc2c3c(n(CCCNCCCCN)c(=O)c2cc1OC)-c1cc2c(cc1C3=O)OCO2`, the GI50 is 5.07 µM in experiment [1]; 0.0829 µM in experiment [2]; 0.738 µM in experiment [3]; 2.86 µM in experiment [4]; 0.836 µM in experiment [5]; 0.191 µM in experiment [6]. The GI50 was 1.4 µM in experiment [7] and 1.91 µM in experiment [8]. Besides, the TGI in experiment [1] turned out to be 21 µM; in experiment [2], 22.5 µM; in experiment [3], 3.8 µM; in experiment [4], 9.13 µM; in experiment [5], 32.5 µM; in experiment [6] it was 2.74 µM. Also, the values for the TGI in experiment [7] and in experiment [8] were 27.3 µM and 8.6 µM, respectively.
Consider `O=C(CCl)N1CCN(c2ccccc2)CC1`, for which the TGI in experiment [1] came to 47.2 µM; in experiment [2] it was 42.4 µM; in experiment [3] it was 36.2 µM; in experiment [5], 36.3 µM; in experiment [7] it was 54.3 µM; in experiment [8] it was 97.2 µM.
As to `CC(=O)CCC[C@@H](C)[C@@H]1O[C@H]([C@@]2(C)CCC(=O)O2)CC2[C@H]1OC(=O)C21CC1` (some centres undefined), the GI50 is 22.3 µM in experiment [2]; more than 100 µM in experiment [3]; more than 100 µM in experiment [4]; 60.6 µM in experiment [6]; more than 100 µM in experiment [7]; more than 100 µM in experiment [8]. Besides, the TGI in experiment [2], in experiment [3], in experiment [4], in experiment [6], in experiment [7] and in experiment [8] was more than 100 µM throughout.
Consider `COc1cccc(N2C(=N)/C(=C3\Nc4ccccc4S3)CC2=O)c1`, for which the GI50 in experiment [1] is 2.02 µM; in experiment [2], 6.65 µM; in experiment [4], 51.1 µM; in experiment [5], 2.73 µM; in experiment [6], 5.4 µM; in experiment [7] it was 4.87 µM. For the same molecule, the GI50 in experiment [8] was 7.9 µM. Besides, the TGI in experiment [1] is 80 µM; in experiment [2], more than 100 µM; in experiment [4], more than 100 µM; in experiment [5], 28.1 µM; in experiment [6], more than 100 µM; in experiment [7] it was more than 100 µM. Further, the TGI in experiment [8] is more than 100 µM.
`c1ccc(C2=Nc3ccccc3N3CNN=C23)cc1`: the GI50 in experiment [2] was more than 100 µM; in experiment [3], 15 µM; in experiment [4], 40.7 µM; in experiment [5], more than 100 µM; in experiment [7], more than 100 µM; in experiment [8], more than 100 µM. Also, the TGI is more than 100 µM in experiment [2]; 51.5 µM in experiment [3]; more than 100 µM in experiment [4]; more than 100 µM in experiment [5]; more than 100 µM in experiment [7]; more than 100 µM in experiment [8].
Turning to `N#Cc1c(-c2ccccc2)nc(SCC(O)CN2CCOCC2)nc1N1CCOCC1` (centres undefined), the GI50 in experiment [1] is 2.43 µM; in experiment [2], 0.098 µM; in experiment [3] it was 0.442 µM; in experiment [4] it was 8.36 µM; in experiment [5] it was 29 µM; in experiment [7], 51.9 µM. In experiment [8], the GI50 is 11.4 µM. The TGI is 23 µM in experiment [1]; 8.51 µM in experiment [2]; 2.23 µM in experiment [3]; more than 100 µM in experiment [4]; more than 100 µM in experiment [5]; more than 100 µM in experiment [7]. In experiment [8], the TGI was more than 100 µM.
On to `CN1C(=O)[C@@H](CC2CCCC2)N(C2CCCC2)c2nc(Nc3cc(Cl)c(O)c(Cl)c3)ncc21`, for which the GI50 in experiment [1] was 35.4 µM; in experiment [2], 15.2 µM; in experiment [3], 13.6 µM; in experiment [5], 27.9 µM; in experiment [6] it was 19.8 µM; in experiment [7], 28.2 µM. Further, the GI50 in experiment [8] was 28.4 µM. For the same molecule, the TGI in experiment [1] was more than 100 µM; in experiment [2], more than 100 µM; in experiment [3], 66.7 µM; in experiment [5] it was more than 100 µM; in experiment [6] it was more than 100 µM; in experiment [7], more than 100 µM. In addition, the TGI in experiment [8] is more than 100 µM.
Take `N#Cc1ncc(-c2ccc(C(F)(F)F)cc2)c(NC2CCCCCC2)n1`: the GI50 in experiment [1] was 21.4 µM; in experiment [2], 5.68 µM; in experiment [4], 6.56 µM; in experiment [5], more than 100 µM; in experiment [6], more than 100 µM; in experiment [7], 8.64 µM. Moreover, the GI50 in experiment [8] was 70.8 µM. The TGI in experiment [1], in experiment [2], in experiment [4], in experiment [5], in experiment [6] and in experiment [7] was more than 100 µM each time. This molecule also displayed a TGI in experiment [8] of more than 100 µM.
